One data set concerns the target T1, Recombinant human TREM2 (Homo sapiens, UniProt Q9NZC2).
T1 sequence (Q9NZC2 19-174 limits assumed): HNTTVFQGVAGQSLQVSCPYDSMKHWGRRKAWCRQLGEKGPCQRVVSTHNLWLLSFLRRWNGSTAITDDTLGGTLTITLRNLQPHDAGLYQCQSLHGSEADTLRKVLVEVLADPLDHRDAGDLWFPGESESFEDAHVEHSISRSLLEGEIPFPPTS
Description: microscale thermophoresis. Type of data set: binding.

In another data set the target is hERG (Homo sapiens, UniProt Q12809, species not given). Put plainly: hERG inhibition. Type of data set: cell-based.

Bounds are passed on as bounds.

Chain of hERG (Q12809 whole entry): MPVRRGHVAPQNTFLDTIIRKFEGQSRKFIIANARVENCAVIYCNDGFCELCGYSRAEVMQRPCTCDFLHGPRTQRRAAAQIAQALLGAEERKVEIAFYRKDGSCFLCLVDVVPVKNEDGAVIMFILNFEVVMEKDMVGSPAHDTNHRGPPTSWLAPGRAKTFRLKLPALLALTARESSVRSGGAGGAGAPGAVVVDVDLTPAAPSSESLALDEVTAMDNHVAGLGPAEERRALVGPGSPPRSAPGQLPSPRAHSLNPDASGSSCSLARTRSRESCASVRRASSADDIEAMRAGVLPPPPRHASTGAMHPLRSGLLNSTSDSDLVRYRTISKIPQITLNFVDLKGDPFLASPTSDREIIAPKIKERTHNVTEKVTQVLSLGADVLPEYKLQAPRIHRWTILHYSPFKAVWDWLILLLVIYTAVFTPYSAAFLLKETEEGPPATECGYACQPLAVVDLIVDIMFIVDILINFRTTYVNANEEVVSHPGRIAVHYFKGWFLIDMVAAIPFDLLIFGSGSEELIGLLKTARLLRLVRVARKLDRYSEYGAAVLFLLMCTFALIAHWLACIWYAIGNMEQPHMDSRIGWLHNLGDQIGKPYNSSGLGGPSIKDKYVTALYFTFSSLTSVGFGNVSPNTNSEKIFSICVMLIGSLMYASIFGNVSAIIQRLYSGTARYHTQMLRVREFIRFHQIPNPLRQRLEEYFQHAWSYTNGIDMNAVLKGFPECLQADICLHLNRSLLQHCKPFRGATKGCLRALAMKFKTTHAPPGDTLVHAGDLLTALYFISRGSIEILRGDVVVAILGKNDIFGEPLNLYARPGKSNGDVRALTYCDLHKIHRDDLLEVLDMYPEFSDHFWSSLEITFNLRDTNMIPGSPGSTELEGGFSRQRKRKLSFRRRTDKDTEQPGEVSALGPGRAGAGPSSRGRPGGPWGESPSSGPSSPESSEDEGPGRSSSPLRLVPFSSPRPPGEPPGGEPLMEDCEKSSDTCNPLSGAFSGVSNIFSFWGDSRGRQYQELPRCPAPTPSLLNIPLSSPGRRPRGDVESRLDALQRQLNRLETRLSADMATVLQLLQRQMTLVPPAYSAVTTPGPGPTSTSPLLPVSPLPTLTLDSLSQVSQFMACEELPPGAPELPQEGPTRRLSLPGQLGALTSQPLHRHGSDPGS

For `Cc1nc2cc(C3=CC(c4cnn(C)c4)OCC3)nc(-c3ccc(Cl)cc3F)c2nc1C` (stereo not drawn) [C1], the dissociation constant Kd – broadly, the equilibrium constant for the complex coming apart – on Recombinant human TREM2 is 71.4 ± 4.06 µM. Further, the 50% inhibitory concentration (IC50) – broadly, the concentration at which inhibition is half-maximal – on hERG is more than 100 µM. The compound `Cc1nc2cc([C@H]3CCO[C@@H](c4cnn(C)c4)C3)nc(-c3ccc(Cl)cc3F)c2nc1C` [VG-3927] had a concentration for half-maximal inhibition (IC50) against hERG of more than 100 µM.

The values above are taken from article doi:10.1101/2025.06.22.660908v1 (biorxiv, 2025).
